Data from the NIST ThermoML archive (doi:10.1016/j.jct.2010.07.006).
Several values for one entry are separate records, joined by “and”; a condition that tells them apart may be missing. Equal entries are not always repeated.

Details: Crystal, Calculated from knudsen effusion weight loss

Cc1cc(C(=O)O)c(C)o1 [2,5-dimethyl-3-furancarboxylic acid]
Details | vapor or sublimation pressure
309.19 K | 0.0001409 kPa and 0.000132 kPa and 0.0001359 kPa
311.12 K | 0.0001806 kPa and 0.0001768 kPa and 0.0001708 kPa
313.08 K | 0.0002273 kPa and 0.0002279 kPa and 0.0002259 kPa
315.18 K | 0.0002809 kPa and 0.0002804 kPa and 0.0002914 kPa
317.12 K | 0.0003673 kPa and 0.0003617 kPa and 0.0003524 kPa
319.08 K | 0.0004503 kPa and 0.0004556 kPa and 0.000449 kPa
321.18 K | 0.0005801 kPa and 0.0005612 kPa and 0.000567 kPa
323.09 K | 0.0007336 kPa and 0.0007218 kPa and 0.0007101 kPa
325.07 K | 0.0009185 kPa and 0.000908 kPa and 0.0008953 kPa
325.19 K | 0.0009292 kPa and 0.000927 kPa and 0.0008864 kPa
327.1 K | 0.001147 kPa and 0.001128 kPa and 0.001102 kPa
